Measured values published in US20110136897A1, “TOLL-LIKE RECEPTOR 9 AGONISTS FOR THE TREATMENT OF ANXIETY-RELATED DISORDERS AND INFLAMMATORY DISORDERS” (YISSUM RESEARCH DEVELOPMENT COMPANY OF THE HEBREW …, priority 2008, published 2011).
“Also recorded” adds a separate entry of the source.

Tests used:
FVB/N mice [1] = experiment: Predator (cat) odor stress paradigm, elevated plus maze (EPM) and acoustic startle response (ASR) one week post-exposure; format: in vivo, mouse
Procedure: Animals: FVB/N or adult TLR9 −/− mice and strain-matched wild type C57/B6J mice were housed four per cage, with constant temperature (21±1° C.), a 12 hour light/dark cycle, free access to food and water and habituation to the housing conditions by daily handling. Experiments were performed 1 week after arrival in the animal facility.
Behavioral paradigms: Mice were placed for 10 minutes on well-soiled cat litter (in use by the cat for 2 days, sifted for stools). One week after exposure, animals were tested according to Cohen et al. (2005) Biol Psychiatry 58, 640 in the elevated plus maze (EPM) and the acoustic startle response (ASR) paradigms. The EPM is a plus-shaped platform with two opposing open arms and two opposing closed arms (surrounded by 14-cm high opaque walls on three sides). Mice were placed on the central platform and were allowed to explore the maze for 5 min. […]
Startle response was measured using two ventilated startle chambers (SR-LAB System, San Diego Instruments, San Diego, Calif.). Each Plexiglas cylinder rests on a platform inside a sound-attenuated, ventilated chamber. Startle sessions started with a 5-minute acclimatization period to a background of 68 dB white noise, followed by 30 acoustic startle stimuli (110 dB white noise of 40 ms duration with 30 s or 45 s inter-trial interval). Startle amplitude was averaged over all 30 trials, and percent habituation was calculated as the percent difference between the response to the first block of stimuli and to the last one.
Animals were randomly divided into 5 groups. The following daily treatments initiated immediately before stressor exposure and for a total of four consecutive days: saline, 50 μg/kg ODN1826, 50 μg/kg mEN101, 50 μg/kg μg mEN101 and 500 μg/kg μg ODN2088. Oligonucleotides were delivered in 300 μl 0.9% NaCl solution (Teva, Israel). A control group was exposed to fresh, unused litter. Animals were sacrificed and brains dissected on day 1 2 h after the stressor, on day 4 2 h after the last injection, or on day 7 2 h after the behavioral tests, as noted.
To challenge the hypothesis that TLR9 activation modulates psychological stress reactions, mice were exposed to the predator odor stress paradigm (Cohen, H., Zohar, J., Matar, M. A., Kaplan, Z. & Geva, A. B. (2005) Biol Psychiatry 58, 640-50) and treated them with TLR9 activating or blocking oligonucleotides and with a known stress-suppressing oligonucleotide, mEN101. One week post-exposure, treated mice were tested for avoidance behavior and hyper-arousal in the elevated plus maze (EPM) and acoustic startle response (ASR) tests, respectively (FIG. 1B). […] They also presented greater startle amplitude (F5,103=10.75, p<0.0001; p<0.0001) and decreased startle habituation ([…]; p<0.0001) than control mice (FIG. 1C). The traumatic experience conferred varied impacts in the exposed mice, ranging from drastically maladaptive behavior to generally unmodified response patterns.

RAW264.7 cells [2] = experiment: HSP90β mRNA RT-PCR in RAW264.7 cells; format: cell-based, mouse; details: 24 hour incubation
Procedure: Cell cultures: The mouse macrophage cell line RAW 264.7 (ATCC, MD) was cultured in Dulbecco's modified Eagle's medium (DMEM) (Biological Industries, Israel) supplemented with 10% heat-inactivated fetal bovine serum (Biological Industries, Israel), 100 μg/ml streptomycin (Sigma), 100 U/ml penicillin (Sigma) and 2 mM 1-glutamine (Biological Industries, Israel) at 37° C. in a humidified atmosphere with 5% CO2.
Real-time PCR (RT-PCR): RAW264.7 cells and spleen were used for RT-PCR. 1×10^6 RAW264.7 cells were grown in 2 ml medium in 6 wells plates until 80% confluence was obtained. Total RNA was extracted using the RNeasy kit (Qiagen, CA, USA). Spleen and brain tissues' RNA was extracted using the RNeasy Tissue Mini Kit (Qiagen, Germany). In all cases, total RNA was reverse-transcribed (200 ng) using Impromp-II reverse transcriptase (Promega, WI, USA) according to manufacturer's instructions. RT-PCR was performed using Power SYBR®Green PCR Master Mix (Applied Biosystems, UK) in a 7900 HT Sequence Detection System (Applied Biosystems, CA). Quantification was assessed at the logarithmic phase of the PCR reaction. The PCR annealing temperature was 60° C. for all primer pairs.

FVB/N mice [3] = experiment: Predator (cat) odor stress paradigm, elevated plus maze (EPM) and acoustic startle response (ASR) one week post-exposure; format: in vivo, mouse; remark: listed apart in the source
RAW264.7 cells [4] = experiment: LPS-induced NO production with or without corticosterone after ODN1826 pre-incubation; format: cell-based, mouse; details: 24 hours before LPS 1 μg/ml with corticosterone
Procedure: Determination of nitric oxygen (NO) production: The nitrite concentration in the medium was measured as an indicator of NO production according to the Griess reaction. 1×10^5 RAW264.7 cells were grown in 0.5 ml medium in 48-wells plate until 80% confluence was obtained. […] (1% sulfanilamide, 0.1% naphthylethylenediamine dihydrochloride, 5% H3PO4). Absorbance was read at 540 nm after 10 minutes using SPECTRAFluor Plus spectrophotometer (TECAN, UK).
In order to study the functional effects of TLR9 activation on GR signaling, RAW264.7 cells were incubated with varying concentrations of ODN1826 (SEQ ID NO: 2) for 24 hours and the medium was replaced with one containing LPS (1 μg/ml) with or without […] corticosterone (CORT) for an additional 24 hours. As expected, CORT blocked lipopolysaccharide (LPS)-induced NO production.

## 5′-TCCATGACGTTCCTGACGTT-3′ [ODN1826, reference compound]
FVB/N mice [1]; 50 μg/kg (high dose for ODN1826), compared to saline injected stressed mice
  anxiety index (AI): significantly increased AI
FVB/N mice [1]; 50 μg/kg i.p. daily for 4 consecutive days, tested day 7, compared to saline-treated stressed mice
  stress-induced anxiety scores (EPM score, startle response, habituation to startle): increased stress-induced anxiety scores; also recorded: slightly anxiogenic behavior
RAW264.7 cells [2]
  HSP90β mRNA levels: significantly increased HSP90β mRNA levels
FVB/N mice [3]; 0.5 μg/kg i.p. daily for 4 days, tested day 7, compared to stressed mice
  stress-induced anxiety scores (EPM score, startle response, habituation to startle): diminished stress-induced anxiety scores; also recorded: lower EPM scores
FVB/N mice [3]; low dose (0.5 μg/kg), compared to saline injected stressed mice
  anxiety index (AI): decreased it
RAW264.7 cells [4]; higher doses (10-100 nM)
  effect on LPS-induced NO production / cell activation: increased cell activation
RAW264.7 cells [4]; low doses (0.01-1 nM)
  effect on CORT inhibition of LPS-induced NO production: potentiated CORT anti-inflammatory effect
